The results in this text go back to ChEMBL document CHEMBL2086308, “Cytotoxic 2-phenyacrylnitriles, the importance of the cyanide moiety and discovery of potent broad spectrum cytotoxic agents” (2012).

In general, GI50 refers to the concentration that inhibits growth by half.

Holding throughout (assay type): functional
In test [1] the test system is MCF7. In words: Growth inhibition of human MCF7 cells assessed as reduction in cell growth after 72 hrs by MTT assay. As to conditions: MCF7, 72 h. (Formazan colour is commonly taken as a measure of viable cells.)
Test [2] concerns HT-29. The test can be described thus: Growth inhibition of human HT-29 cells assessed as reduction in cell growth after 72 hrs by MTT assay. The note with it: HT-29, 72 h.
Test [3] relates to SW480. In words: Growth inhibition of human SW480 cells assessed as reduction in cell growth after 72 hrs by MTT assay. As to conditions: SW480, 72 h.
Test [4] relates to A2780. In words: Growth inhibition of human A2780 cells assessed as reduction in cell growth after 72 hrs by MTT assay. As to conditions: A2780, 72 h.
Test [5] deals with NCI-H460. The test can be described thus: Growth inhibition of human H460 cells assessed as reduction in cell growth after 72 hrs by MTT assay. As to conditions: NCI-H460, 72 h.
The subject of test [6] is A-431. The test can be described thus: Growth inhibition of human A431 cells assessed as reduction in cell growth after 72 hrs by MTT assay. As to conditions: A-431, 72 h.
Test [7] concerns DU-145. In words: Growth inhibition of human DU145 cells assessed as reduction in cell growth after 72 hrs by MTT assay. The note with it: DU-145, 72 h.
Test [8] in a line: Growth inhibition of human BE(2)-C cells assessed as reduction in cell growth after 72 hrs by MTT assay.
The nature of test [9]: Growth inhibition of human SJ-G2 cells assessed as reduction in cell growth after 72 hrs by MTT assay. As to conditions: SJ-G2, 72 h.
Test [10] deals with MIA PaCa-2. In words: Growth inhibition of human MIAPaCa2 cells assessed as reduction in cell growth after 72 hrs by MTT assay. The note with it: MIA PaCa-2, 72 h.
Test [11] can be described thus: Growth inhibition of mouse SMA cells assessed as reduction in cell growth after 72 hrs by MTT assay.
In test [12] the test system is HT-29. In words: Growth inhibition of human HT-29 cells assessed as reduction in cell growth at 25uM after 72 hrs by MTT assay. The note with it: HT-29, 72 h, read-out: GI.
Test [13] concerns SW480. The test can be described thus: Growth inhibition of human SW480 cells assessed as reduction in cell growth at 25uM after 72 hrs by MTT assay. As to conditions: SW480, 72 h, read-out: GI.
The subject of test [14] is MCF7. In words: Growth inhibition of human MCF7 cells assessed as reduction in cell growth at 25uM after 72 hrs by MTT assay. The note with it: MCF7, 72 h, read-out: GI.
Test [15] concerns A2780. The test can be described thus: Growth inhibition of human A2780 cells assessed as reduction in cell growth at 25uM after 72 hrs by MTT assay. The note with it: A2780, 72 h, read-out: GI.
Test [16] has as its system NCI-H460. In words: Growth inhibition of human H460 cells assessed as reduction in cell growth at 25uM after 72 hrs by MTT assay. The note with it: NCI-H460, 72 h, read-out: GI.
Test [17] has as its system A-431. The test can be described thus: Growth inhibition of human A431 cells assessed as reduction in cell growth at 25uM after 72 hrs by MTT assay. As to conditions: A-431, 72 h, read-out: GI.
For test [18], the system named is DU-145. The test can be described thus: Growth inhibition of human DU145 cells assessed as reduction in cell growth at 25uM after 72 hrs by MTT assay. As to conditions: DU-145, 72 h, read-out: GI.
Test [19] in a line: Growth inhibition of human BE(2)-C cells assessed as reduction in cell growth at 25uM after 72 hrs by MTT assay. As to conditions: read-out: GI.
The nature of test [20]: Growth inhibition of human SJ-G2 cells assessed as reduction in cell growth at 25uM after 72 hrs by MTT assay. As to conditions: SJ-G2, 72 h, read-out: GI.
In test [21] the test system is MIA PaCa-2. The test can be described thus: Growth inhibition of human MIAPaCa2 cells assessed as reduction in cell growth at 25uM after 72 hrs by MTT assay. The note with it: MIA PaCa-2, 72 h, read-out: GI.
The nature of test [22]: Growth inhibition of mouse SMA cells assessed as reduction in cell growth at 25uM after 72 hrs by MTT assay. As to conditions: read-out: GI.

`Cc1ccc2[nH]cc(/C=C(\C#N)c3ccc(Cl)c(Cl)c3)c2c1`: the GI50 turned out to be 3.7 µM in test [1]; 2.8 µM in [2]; 4.7 µM in test [3]; 3.2 µM in [4]; 3 µM in test [5]; 3 µM in test [6]. Moreover, the concentration for 50% growth inhibition (GI50) in test [7] was 7.4 µM; in test [8], 3.4 µM; in test [9] it was 5.3 µM; in test [10] it was 3.7 µM; in test [11], 4.1 µM.
As to `COc1ccc(/C=C(\C#N)c2ccc(Cl)c(Cl)c2)cc1`, the 50% growth inhibitory concentration (GI50) in test [1] is 0.6 µM; in [2], 0.52 µM; in test [3], 1.4 µM; in test [4], 0.7 µM; in test [5], 0.7 µM; in test [6] it was 0.6 µM. For the same molecule, the 50% growth inhibitory concentration (GI50) in test [7] is 1.4 µM; in test [8], 2.7 µM; in test [9], 1.5 µM; in [10] it was 0.7 µM.
For `N#C/C(=C\c1c[nH]c2ccccc12)c1ccc(Cl)c(Cl)c1`, the GI50 was 1.3 µM in [1]; 0.85 µM in [2]; 2.1 µM in test [3]; 0.9 µM in test [4]; 1 µM in test [5]; 0.8 µM in test [6]. The 50% growth inhibitory concentration (GI50) was 3.1 µM in test [7]; 1 µM in test [8]; 1.7 µM in test [9]; 1.6 µM in [10]; 1.3 µM in [11].
Take `N#C/C(=C\c1ccc(F)cc1)c1ccc(Cl)c(Cl)c1`: the GI50 is 6.5 µM in [1]; 9.3 µM in test [2]; 5.6 µM in [3]; 9.5 µM in [4]; 10 µM in test [5]; 10 µM in [6]. The GI50 came out at 18 µM in test [7], 13 µM in test [8], 16 µM in [9] and 11 µM in [10].
Turning to `N#C/C(=C\c1c[nH]c2ccc(Cl)cc12)c1ccc(Cl)c(Cl)c1`, the GI50 in [1] amounted to 2.3 µM; in test [2], 7.1 µM; in [3], 8.8 µM; in test [4], 7.4 µM; in [5], 8.7 µM; in [6], 7.7 µM. Besides, the GI50 turned out to be 12 µM in [7]; 8.6 µM in test [8]; 9.7 µM in test [9]; 11 µM in test [10]; 6.7 µM in test [11].
For the molecule `N#C/C(=C\c1c[nH]c2ccc(Br)cc12)c1ccc(Cl)c(Cl)c1`, the GI50 in [1] came out at 6.9 µM; in test [2] it was 7 µM; in [3] it was 8.2 µM; in [4], 6.8 µM; in test [5], 7.5 µM; in [6], 7.3 µM. Also, the GI50 in test [7] was found to be 13 µM; in test [8] it was 7 µM; in test [9], 10 µM; in test [10], 9 µM; in test [11], 9.2 µM.
Turning to `N#C/C(=C\c1c[nH]c2c1ccc1ccccc12)c1ccc(Cl)c(Cl)c1`, the GI50 in test [1] stood at 4 µM; in test [2], 4.2 µM; in test [3], 7.5 µM; in test [4], 3.7 µM; in [5], 5 µM; in test [6] it was 3 µM. Further, the concentration for 50% growth inhibition (GI50) in test [7] was found to be 8.7 µM; in test [8], 3.8 µM; in test [9] it was 6.8 µM; in test [10], 6.1 µM; in test [11], 5.9 µM.
Turning to `N#C/C(=C\c1ccc(C(F)(F)F)cc1)c1ccc(Cl)c(Cl)c1`, the GI50 in test [1] was 31 µM; in [2] it was 35 µM; in test [3], 49 µM; in test [4] it was 41 µM; in [5], 36 µM; in test [6], 53 µM. Besides, the 50% growth inhibitory concentration (GI50) in [7] was found to be 45 µM; in [8] it was 43 µM; in test [9], 41 µM; in test [10], 35 µM; in test [11], 45 µM.
As to `N#C/C(=C\c1ccc(CO)o1)c1ccc(Cl)c(Cl)c1`, the inhibition of growth at 25 µM in [12] is 41%; in test [13] it was less than 10%; in test [14], 27%; in [15], 25%; in [16], 30%; in test [17] it was less than 10%. Besides, the inhibition of growth at 25 µM in test [18] is less than 10%; in test [19] it was less than 10%; in test [20], 27%; in test [21], less than 10%; in test [22], 16%.
Regarding `N#C/C(=C\c1ccco1)c1ccc(Cl)c(Cl)c1`, the concentration for 50% growth inhibition (GI50) amounted to 7 µM in test [1]; 36 µM in [2]; 45 µM in [3]; 38 µM in [4]; 52 µM in [5]; 39 µM in [6]. Further, the GI50 in [7] was found to be 42 µM; in [8], 38 µM; in test [9], 50 µM; in test [10] it was 46 µM; in test [11], 36 µM.
Consider `N#C/C(=C\c1ccc(-c2ccccc2)o1)c1ccc(Cl)c(Cl)c1`, for which the inhibition of growth at 25 µM in test [12] was 15%; in test [13], less than 10%; in test [14] it was less than 10%; in [15], 13%; in test [16], 11%; in [17], less than 10%. Also, the inhibition of growth at 25 µM in [18], in [19], in [20], in [21] and in test [22] was less than 10% throughout.
As to `N#C/C(=C\c1ccc2[nH]ccc2c1)c1ccc(Cl)c(Cl)c1`, the GI50 in test [1] came out at 0.23 µM; in test [2], 0.36 µM; in test [3], 0.67 µM; in [4], 0.41 µM; in [5], 0.39 µM; in [6], 0.37 µM. Moreover, the GI50 stood at 1.04 µM in test [7]; 0.33 µM in test [8]; 0.83 µM in test [9]; 0.5 µM in test [10]; 0.74 µM in [11].
In the case of `N#C/C(=C\c1c[nH]c2ccc(C#N)cc12)c1ccc(Cl)c(Cl)c1`, the inhibition of growth at 25 µM in test [12] turned out to be 57%; in test [13], 43%; in test [14], 38%; in test [15], 47%; in test [16], 33%; in test [17], 34%. Also, the inhibition of growth at 25 µM in test [18] is 18%; in [19] it was 50%; in test [20] it was 44%; in test [21] it was 43%; in [22] it was 44%.
As for `O=C(O)/C(=C\c1ccc([N+](=O)[O-])cc1)c1ccc(Cl)c(Cl)c1`, the inhibition of growth at 25 µM in test [12] was 28%; in [13] it was less than 10%; in [14], 11%; in test [15], less than 10%; in test [16], less than 10%; in test [17], less than 10%. Further, the inhibition of growth at 25 µM in [18], in [19], in test [20], in test [21] and in [22] was less than 10% each time.
`N#C/C(=C\c1ccc([N+](=O)[O-])cc1)c1ccc(Cl)c(Cl)c1`: the GI50 in test [1] was 0.127 µM; in test [2], 3.1 µM; in test [3], 8.4 µM; in test [4], 12 µM; in [5], 69 µM; in test [6] it was 7.1 µM. Further, the 50% growth inhibitory concentration (GI50) in [7] was determined as 18 µM; in [8], 8.9 µM; in test [9], 14 µM; in test [10], 27 µM.
Consider `Cc1[nH]c2ccccc2c1/C=C(\C#N)c1ccc(Cl)c(Cl)c1`, for which the GI50 in [1] worked out at 2.8 µM; in test [2], 1.9 µM; in [3] it was 3.8 µM; in [4] it was 2.2 µM; in test [5], 2.2 µM; in test [6], 2.1 µM. The GI50 in [7] amounted to 5.6 µM; in test [8], 2 µM; in test [9] it was 4 µM; in test [10], 2.4 µM; in test [11], 2.9 µM.
